Assays:
FAK kinase = molecular target: T1, FAK kinase (Homo sapiens, UniProt Q05397); assay: ADP-Glo kinase enzymatic assay; format: biochemical; settings: mean ± SD of three independent experiments
T1 construct: purchased Promega Corporation V9301
Experimental: The ADP-Glo™ Kinase Assay Kit and FAK Kinase Enzyme (Catalog. V9301) were purchased from Promega Corporation (Madison, WI, USA). The experiments were performed according to the detailed and complete protocols of the manufacturer. Briefly, the concentration of FAK determined by optimization experiments was 0.1 μg/μL. Suitable concentration gradients from 1.6 to 1000 nM were set for all the tested compounds. A kinase reaction buffer, a substrate/ATP mixture, and a FAK solution were prepared right before use. The 5 μL kinase reaction consisted of 1 μL of compound solution, 2 μL of substrate/ATP mixture, and 2 μL of FAK solution. The control without enzyme was provided by 3 μL of kinase reaction buffer and 2 μL of substrate/ATP mixture. The negative control was prepared using 1 μL of kinase reaction buffer instead of a compound solution. The kinase reactions were added to a 384-well plate and incubated at room temperature for 60 min, then 5 μL of ADP-Glo™ Reagent was added to stop the kinase reaction and deplete the unconsumed ATP, and incubated at room temperature for 40 min. After adding 10 μL of Kinase Detection Reagent, the plate was incubated at room temperature for 30 min and then luminescence was recorded (integration time 0.5–1 s) on a TriStar® LB942 Multimode Microplate Reader (BERTHOLD TECHNOLOGIES GmbH & Co. KG., Bad Wildbad, Germany). Curve fitting and data presentations were performed using GraphPad Prism version 8.0.

[1] = test system: H1975 non-small cell lung cancer (NSCLC) cells; assay: CCK-8 cell viability assay, H1975; format: cell-based; settings: Homo sapiens, NCI-H1975, CCK-8, 72 h, mean ± SD of three experiments, read-out: Antiproliferative Activity IC50, H1975
Experimental: (§1) The H1975 human NSCLC cell line was obtained from ATCC. A431 human epithelial carcinoma and HBE human bronchial epithelial cell lines were kind gifts from Fuheng Biological Company Ltd. (Shanghai, China) and YuXi Biotech Company (Jiangsu, China), respectively. The cells were maintained in RPMI 1640 or DMEM (Gibco®, Thermo Fisher Scientific Inc., Waltham, MA, USA) containing 10% fetal bovine serum (FBS, Gibco®) and 1% penicillin-streptomycin (Beyotime Company, Shanghai, China) at 37 °C in a 5% CO2 incubator.
(§2) A total of 3000 cells of H1975 or HBE and 5000 cells of A431 were seeded for each well into a 96-well plate and cultured in 10% FBS respective growth medium overnight. Various concentrations (0–20 μM) of each compound were then added in triplicate to the cells. After 72 h of incubation, 10 μL of CCK-8 solution (5.0 mg/mL, Biotool Company, Kirchberg, Switzerland) was added to each well and the cells continued to culture for 4 h. The optical density (OD) was determined at 450 nm with a microplate reader (Thermo Fisher Scientific, Waltham, MA, USA). IC50 values were calculated employing GraphPad Prism version 8.0.

[2] = test system: A431 human epithelial carcinoma cells; assay: CCK-8 cell viability assay, A431; format: cell-based; settings: A-431, CCK-8, 72 h, mean ± SD of three experiments, read-out: Antiproliferative Activity IC50, A431
Experimental: as §1, §2

[3] = test system: normal human bronchial epithelial cells (HBE); assay: CCK-8 cellular selectivity assay, HBE; format: cell-based; settings: for IC50: Homo sapiens, Epithelial cell, HBE normal cells, CCK-8, 72 h, mean ± SD of three experiments, read-out: Antiproliferative Activity IC50, HBE; for SI Values (selectivity index): IC50 for HBE cell line/IC50 for H1975 cell line
Experimental: as §1, §2

H1975 cells = assay: Scratch (cell migration) assay; format: cell-based, human; settings: H1975, 0.1, 0.5, and 1 μM, 24 h
Experimental: H1975 cells were seeded in 6-well plates and incubated for 12 h. When cells were grown to 90–100% confluency in a monolayer, wounds were generated using a pipette tip. […] The images were captured to record the status of cells near the scratch lines at the beginning and after 12 and 24 h.

T1 sequence (Q05397 393-698 limits assumed): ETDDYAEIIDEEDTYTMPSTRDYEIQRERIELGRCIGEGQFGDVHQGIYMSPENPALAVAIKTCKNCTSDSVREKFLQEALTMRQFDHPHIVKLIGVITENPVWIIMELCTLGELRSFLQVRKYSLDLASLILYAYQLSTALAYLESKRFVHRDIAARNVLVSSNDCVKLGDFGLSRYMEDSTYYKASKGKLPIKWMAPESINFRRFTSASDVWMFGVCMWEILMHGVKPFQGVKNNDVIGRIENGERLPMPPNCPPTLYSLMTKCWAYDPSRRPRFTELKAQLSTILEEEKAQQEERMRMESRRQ

Structure (SMILES) | IC50 (FAK kinase) | IC50 [1] | IC50 [2] | IC50 [3] | SI Values (selectivity index) [3] | melting point | Cell migration (in words) (H1975 cells)
O=C(NCCCO)c1ccccc1Nc1nc(Nc2ccc(CN3CCOCC3)cc2)ncc1Cl [Compound 8b, 2-((5-Chloro-2-((4-(morpholinomethyl)phenyl)amino)pyrimidin-4-yl)amino)-N-(3-hydroxypropyl)benzamide] | 61 ± 9 nM | 75 ± 11 nM | 207 ± 36 nM | 1150 ± 283 nM | 15 | – | –
CC(O)CNC(=O)c1ccccc1Nc1nc(Nc2ccc(CN3CCOCC3)cc2)ncc1Cl (stereo not drawn) [Compound 8c, 2-((5-Chloro-2-((4-(morpholinomethyl)phenyl)amino)pyrimidin-4-yl)amino)-N-(2-hydroxypropyl)benzamide] | 30 ± 7 nM | 119 ± 47 nM | 158 ± 27 nM | 4010 ± 231 nM | 34 | – | –
CN(CCO)C(=O)c1ccccc1Nc1nc(Nc2ccc(CN3CCOCC3)cc2)ncc1Cl [Compound 8d, 2-((5-Chloro-2-((4-(morpholinomethyl)phenyl)amino)pyrimidin-4-yl)amino)-N-(2-hydroxyethyl)-N-methylbenzamide] | 40 ± 11 nM | 293 ± 50 nM | 161 ± 82 nM | 3820 ± 500 nM | 13 | – | –
O=C(c1ccccc1Nc1nc(Nc2ccc(CN3CCOCC3)cc2)ncc1Cl)N1CCC(O)CC1 [Compound 8e] | 129 ± 37 nM | 1410 ± 132 nM | 238 ± 98 nM | 435 ± 45 nM | 0.3 | – | –
O=C(c1ccccc1Nc1nc(Nc2ccc(CN3CCOCC3)cc2)ncc1Cl)N1CCC(CO)CC1 [Compound 8f] | 173 ± 23 nM | 2220 ± 261 nM | 195 ± 97 nM | 862 ± 125 nM | 0.4 | – | –
O=C(NCCCCCCO)c1ccccc1Nc1nc(Nc2ccc(CN3CCOCC3)cc2)ncc1Cl [Compound 8g, 2-((5-Chloro-2-((4-(morpholinomethyl)phenyl)amino)pyrimidin-4-yl)amino)-N-(6-hydroxyhexyl)benzamide] | 198 ± 32 nM | 287 ± 61 nM | 507 ± 19 nM | 1640 ± 813 nM | 6 | – | –
O=C(NCC(O)CO)c1ccccc1Nc1nc(Nc2ccc(CN3CCOCC3)cc2)ncc1Cl (stereo not drawn) [Compound 8h, 2-((5-Chloro-2-((4-(morpholinomethyl)phenyl)amino)pyrimidin-4-yl)amino)-N-(2,3-dihydroxypropyl)benzamide] | 72 ± 7 nM | 219 ± 82 nM | 47 ± 6 nM | 688 ± 121 nM | 3 | – | –
CCC(C)C(CO)NC(=O)c1ccccc1Nc1nc(Nc2ccc(CN3CCOCC3)cc2)ncc1Cl (stereo not drawn) [Compound 8i, 2-((5-Chloro-2-((4-(morpholinomethyl)phenyl)amino)pyrimidin-4-yl)amino)-N-(1-hydroxy-3-methylpentan-2-yl)benzamide] | 126 ± 21 nM | 815 ± 61 nM | 1240 ± 909 nM | > 20000 nM | >24 | – | –
O=C(NCCOc1no[n+]([O-])c1S(=O)(=O)c1ccccc1)c1ccccc1Nc1nc(Nc2ccc(CN3CCOCC3)cc2)ncc1Cl [Compound 9a, 4-(2-(2-((5-Chloro-2-((4-(morpholinomethyl)phenyl)amino)pyrimidin-4-yl)amino)benzamido)ethoxy)-3-(phenylsulfonyl)-1,2,5-oxadiazole 2-oxide] | 149 ± 33 nM | 47 ± 9 nM | 182 ± 32 nM | 916 ± 92 nM | 19 | 174 to 176 °C | –
O=C(NCCCOc1no[n+]([O-])c1S(=O)(=O)c1ccccc1)c1ccccc1Nc1nc(Nc2ccc(CN3CCOCC3)cc2)ncc1Cl [Compound 9b, 4-(3-(2-((5-Chloro-2-((4-(morpholinomethyl)phenyl)amino)pyrimidin-4-yl)amino)benzamido)propoxy)-3-(phenylsulfonyl)-1,2,5-oxadiazole 2-oxide] | 338 ± 38 nM | 164 ± 51 nM | 138 ± 31 nM | 2080 ± 366 nM | 13 | 144 to 146 °C | –
CC(CNC(=O)c1ccccc1Nc1nc(Nc2ccc(CN3CCOCC3)cc2)ncc1Cl)Oc1no[n+]([O-])c1S(=O)(=O)c1ccccc1 (stereo not drawn) [Compound 9c, 4-((1-(2-((5-Chloro-2-((4-(morpholinomethyl)phenyl)amino)pyrimidin-4-yl)amino)benzamido)propan-2-yl)oxy)-3-(phenylsulfonyl)-1,2,5-oxadiazole 2-oxide] | 89 ± 14 nM | 567 ± 86 nM | 1070 ± 154 nM | 2420 ± 546 nM | 4 | 187 to 189 °C | –
CN(CCOc1no[n+]([O-])c1S(=O)(=O)c1ccccc1)C(=O)c1ccccc1Nc1nc(Nc2ccc(CN3CCOCC3)cc2)ncc1Cl [Compound 9d, 4-(2-(2-((5-Chloro-2-((4-(morpholinomethyl)phenyl)amino)pyrimidin-4-yl)amino)-N-methylbenzamido)ethoxy)-3-(phenylsulfonyl)-1,2,5-oxadiazole 2-oxide] | 66 ± 14 nM | 1090 ± 137 nM | 2740 ± 206 nM | 4550 ± 533 nM | 4 | 169 to 171 °C | –
O=C(c1ccccc1Nc1nc(Nc2ccc(CN3CCOCC3)cc2)ncc1Cl)N1CCC(Oc2no[n+]([O-])c2S(=O)(=O)c2ccccc2)CC1 [Compound 9e, 4-((1-(2-((5-Chloro-2-((4-(morpholinomethyl)phenyl)amino)pyrimidin-4-yl)amino)benzoyl)piperidin-4-yl)oxy)-3-(phenylsulfonyl)-1,2,5-oxadiazole 2-oxide] | > 1000 nM | 1720 ± 295 nM | 2410 ± 587 nM | 763 ± 100 nM | 0.4 | 130 to 132 °C | –
O=C(c1ccccc1Nc1nc(Nc2ccc(CN3CCOCC3)cc2)ncc1Cl)N1CCC(COc2no[n+]([O-])c2S(=O)(=O)c2ccccc2)CC1 [Compound 9f, 4-((1-(2-((5-Chloro-2-((4-(morpholinomethyl)phenyl)amino)pyrimidin-4-yl)amino)benzoyl)piperidin-4-yl)methoxy)-3-(phenylsulfonyl)-1,2,5-oxadiazole 2-oxide] | 300 ± 9 nM | 1570 ± 265 nM | 1740 ± 305 nM | 3760 ± 1600 nM | 2 | 109 to 111 °C | –
O=C(NCCCCCCOc1no[n+]([O-])c1S(=O)(=O)c1ccccc1)c1ccccc1Nc1nc(Nc2ccc(CN3CCOCC3)cc2)ncc1Cl [Compound 9g, 4-((6-(2-((5-Chloro-2-((4-(morpholinomethyl)phenyl)amino)pyrimidin-4-yl)amino)benzamido)hexyl)oxy)-3-(phenylsulfonyl)-1,2,5-oxadiazole 2-oxide] | > 1000 nM | 592 ± 73 nM | 617 ± 40 nM | 3010 ± 90 nM | 5 | 120 to 122 °C | –
C=CC(=O)Nc1cc(Nc2nccc(-c3cn(C)c4ccccc34)n2)c(OC)cc1N(C)CCN(C)C [Osimertinib, osimertinib, reference compound] | – | 116 ± 32 nM | 988 ± 119 nM | 1210 ± 177 nM | 10 | – | –
CNC(=O)c1ccccc1Nc1nc(Nc2ccc(N3CCOCC3)cc2OC)ncc1Cl [TAE226, reference compound] | – | 141 ± 41 nM | 392 ± 53 nM | > 20000 nM | – | – | reduced migration distances
